From patent publication US11420973B2, “Amide substituted indole compounds useful as TLR inhibitors” (BRISTOL-MYERS SQUIBB COMPANY, priority 2017, dated 2022)
Where a name gives a salt, the structure may show the parent alone. Read-outs that look alike come from different tables or passages of the source.

Tests used:
human TLR9 = human TLR9 (Homo sapiens (Human), UniProt Q9NR96); assay: TLR9 inhibition reporter assay (HEK-Blue SEAP reporter, ODN2006 stimulation);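 further: SEAP reporter under IFN-β minimal promoter with five NF-κB and AP-1 sites, 22 h incubation, compounds 0.05 nM–50 µM, inhibition relative to agonist plus DMSO versus known inhibitor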
Chain of human TLR9 (Q9NR96 26-1032): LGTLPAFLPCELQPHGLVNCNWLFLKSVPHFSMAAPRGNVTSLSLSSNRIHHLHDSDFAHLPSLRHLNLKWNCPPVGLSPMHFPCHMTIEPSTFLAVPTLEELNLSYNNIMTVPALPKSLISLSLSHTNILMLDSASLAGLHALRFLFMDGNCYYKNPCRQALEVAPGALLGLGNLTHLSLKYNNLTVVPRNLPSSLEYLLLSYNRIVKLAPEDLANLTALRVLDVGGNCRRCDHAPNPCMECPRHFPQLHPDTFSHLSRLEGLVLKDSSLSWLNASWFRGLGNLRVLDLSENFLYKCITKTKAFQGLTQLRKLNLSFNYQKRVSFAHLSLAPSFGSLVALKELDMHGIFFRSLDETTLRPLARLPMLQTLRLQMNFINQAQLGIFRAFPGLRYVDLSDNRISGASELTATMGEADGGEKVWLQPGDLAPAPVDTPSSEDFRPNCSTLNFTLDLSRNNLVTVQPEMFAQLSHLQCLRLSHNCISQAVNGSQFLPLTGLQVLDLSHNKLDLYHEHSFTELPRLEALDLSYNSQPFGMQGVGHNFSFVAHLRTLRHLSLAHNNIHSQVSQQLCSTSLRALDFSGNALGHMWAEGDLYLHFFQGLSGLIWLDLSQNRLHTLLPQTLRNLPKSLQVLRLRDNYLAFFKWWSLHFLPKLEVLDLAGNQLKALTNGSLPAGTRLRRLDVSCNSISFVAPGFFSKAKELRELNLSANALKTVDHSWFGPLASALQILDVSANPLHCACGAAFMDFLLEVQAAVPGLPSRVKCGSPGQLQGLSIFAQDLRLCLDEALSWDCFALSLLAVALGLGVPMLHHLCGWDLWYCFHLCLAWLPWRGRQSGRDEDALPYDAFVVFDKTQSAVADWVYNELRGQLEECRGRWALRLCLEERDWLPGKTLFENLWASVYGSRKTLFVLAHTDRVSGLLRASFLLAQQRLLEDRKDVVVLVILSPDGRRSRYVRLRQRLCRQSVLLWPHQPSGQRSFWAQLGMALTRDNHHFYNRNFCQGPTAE
Method: HEK-Blue™-cells (Invivogen) overexpressing human TLR7, TLR8 or TLR9 receptors were used for screening inhibitors of these receptors using an inducible SEAP (secreted embryonic alkaline phosphatase) reporter gene under the control of the IFN-β minimal promoter fused to five NF-κB and AP-1-binding sites. Briefly, cells are seeded into Greiner 384 well plates (15000 cells per well for TLR7, 20,000 for TLR8 and 25,000 for TLR9) and then treated with test compounds in DMSO to yield a final dose response concentration range of 0.05 nM-50 μM. After a 30 minute compound pre-treatment at room temperature, the cells are then stimulated with a TLR7 ligand (gardiquimod at a final concentration of 7.5 μM), TLR8 ligand (R848 at a final concentration of 15.9 μM) or TLR9 ligand (ODN2006 at a final concentration of 5 nM) to activate NF-κB and AP-1 which induce the production of SEAP. After a 22 hour incubation at 37° C., 5% CO2, SEAP levels are determined with the addition of HEK-Blue™ Detection reagent (Invivogen), a cell culture medium that allows for detection of SEAP, according to manufacturer's specifications.

human TLR8 = human TLR8 (Homo sapiens (Human), UniProt Q9NR97); assay: TLR8 inhibition reporter assay (HEK-Blue SEAP reporter, R848 stimulation);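 further: SEAP driven by IFN-β minimal promoter with NF-κB and AP-1 sites, 22 h incubation, compounds 0.05 nM–50 µM, inhibition scaled between agonist plus DMSO and reference inhibitor wells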
Chain of human TLR8 (Q9NR97 27-1041): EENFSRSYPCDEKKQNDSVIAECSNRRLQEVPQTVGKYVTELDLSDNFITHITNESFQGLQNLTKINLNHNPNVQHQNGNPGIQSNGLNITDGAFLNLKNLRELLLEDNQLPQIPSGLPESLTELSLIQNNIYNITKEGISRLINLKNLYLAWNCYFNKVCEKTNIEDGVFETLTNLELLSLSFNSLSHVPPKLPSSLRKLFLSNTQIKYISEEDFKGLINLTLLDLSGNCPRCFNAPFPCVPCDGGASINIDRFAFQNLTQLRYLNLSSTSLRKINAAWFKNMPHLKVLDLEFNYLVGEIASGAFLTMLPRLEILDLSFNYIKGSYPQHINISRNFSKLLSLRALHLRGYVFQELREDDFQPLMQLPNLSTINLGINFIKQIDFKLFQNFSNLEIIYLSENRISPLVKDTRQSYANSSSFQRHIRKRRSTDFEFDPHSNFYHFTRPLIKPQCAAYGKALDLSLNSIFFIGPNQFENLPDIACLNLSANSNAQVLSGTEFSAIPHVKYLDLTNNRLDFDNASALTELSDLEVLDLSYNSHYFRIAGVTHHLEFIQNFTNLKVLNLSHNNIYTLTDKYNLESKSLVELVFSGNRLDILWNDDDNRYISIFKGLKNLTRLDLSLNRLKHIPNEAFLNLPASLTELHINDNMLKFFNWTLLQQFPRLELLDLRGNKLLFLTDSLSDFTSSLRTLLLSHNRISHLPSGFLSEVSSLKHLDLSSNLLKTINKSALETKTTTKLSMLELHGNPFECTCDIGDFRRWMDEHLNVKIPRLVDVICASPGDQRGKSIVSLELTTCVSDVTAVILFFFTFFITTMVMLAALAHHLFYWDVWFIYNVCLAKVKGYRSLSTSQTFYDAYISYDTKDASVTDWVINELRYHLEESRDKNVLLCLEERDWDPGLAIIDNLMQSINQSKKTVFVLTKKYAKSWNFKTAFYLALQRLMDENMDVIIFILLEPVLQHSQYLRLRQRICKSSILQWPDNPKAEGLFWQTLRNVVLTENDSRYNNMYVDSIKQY

human TLR7 = human TLR7 (Homo sapiens (Human), UniProt Q9NYK1); assay: TLR7 inhibition reporter assay (HEK-Blue SEAP reporter, gardiquimod stimulation); assay type: cell-based; details: HEK-Blue cells overexpressing human TLR7, gardiquimod 7.5 μM
Chain of human TLR7 (Q9NYK1 27-1049): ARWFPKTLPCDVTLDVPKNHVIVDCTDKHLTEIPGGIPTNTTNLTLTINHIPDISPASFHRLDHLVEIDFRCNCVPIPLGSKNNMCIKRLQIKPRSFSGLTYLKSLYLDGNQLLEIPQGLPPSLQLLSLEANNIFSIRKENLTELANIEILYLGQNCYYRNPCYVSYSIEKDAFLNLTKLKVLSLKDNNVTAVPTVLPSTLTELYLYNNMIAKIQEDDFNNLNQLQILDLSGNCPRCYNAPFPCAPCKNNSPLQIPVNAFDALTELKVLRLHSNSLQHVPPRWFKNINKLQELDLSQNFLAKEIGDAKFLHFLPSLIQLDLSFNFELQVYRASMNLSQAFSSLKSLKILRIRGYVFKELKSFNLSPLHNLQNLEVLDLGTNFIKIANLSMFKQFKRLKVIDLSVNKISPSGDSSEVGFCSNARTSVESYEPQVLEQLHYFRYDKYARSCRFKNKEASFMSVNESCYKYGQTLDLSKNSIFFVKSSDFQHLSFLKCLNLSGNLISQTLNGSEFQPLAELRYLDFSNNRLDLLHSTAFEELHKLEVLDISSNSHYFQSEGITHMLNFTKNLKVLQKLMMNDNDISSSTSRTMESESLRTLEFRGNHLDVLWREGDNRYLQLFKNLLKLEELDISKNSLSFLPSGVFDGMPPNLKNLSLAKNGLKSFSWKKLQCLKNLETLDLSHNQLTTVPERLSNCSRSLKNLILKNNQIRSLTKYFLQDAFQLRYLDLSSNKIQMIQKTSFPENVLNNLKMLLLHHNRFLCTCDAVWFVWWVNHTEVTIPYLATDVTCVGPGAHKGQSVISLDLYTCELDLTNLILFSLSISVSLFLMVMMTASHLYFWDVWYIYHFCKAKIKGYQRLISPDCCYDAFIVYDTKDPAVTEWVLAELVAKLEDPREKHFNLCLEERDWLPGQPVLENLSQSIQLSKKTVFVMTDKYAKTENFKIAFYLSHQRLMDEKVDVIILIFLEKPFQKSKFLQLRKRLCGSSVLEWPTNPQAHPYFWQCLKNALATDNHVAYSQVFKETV

[1] = read-out: TLR9 IC50, HEK-Blue cells overexpressing human TLR9, ODN2006 5 nM, SEAP reporter
[2] = read-out: TLR8 IC50, HEK-Blue cells overexpressing human TLR8, R848 15.9 μM, SEAP reporter

SMILES | IC50 (human TLR9; [1]) [nM] | IC50 (human TLR8; [2]) [nM] | IC50 (human TLR7) [nM] | IC50 (human TLR9) [nM] | IC50 (human TLR8) [nM] | IC50 (human TLR9; read-out: TLR9 IC50, HEK-Blue cells overexpressing human TLR9, ODN2006 5 nM, SEAP reporter, listed as 700) [nM] | IC50 (human TLR8; read-out: TLR8 IC50, HEK-Blue cells overexpressing human TLR8, R848 15.9 μM, SEAP reporter, listed as 700) [nM] | IC50 (human TLR7; listed as 700) [nM]
Cc1c(-c2[nH]c3ccc(C(=O)N(C)CCN(C)C)cc3c2C(C)C)cn(C)c(=O)c1Cl [Example 222, 2-(5-chloro-1,4-dimethyl-6-oxo-1,6-dihydropyridin-3-yl)-N-(2-(dimethylamino)ethyl)-3-isopropyl-N-methyl-1H-indole-5-carboxamide] | 6920 | 10 | 22 | – | – | – | – | –
Cc1cc(-c2[nH]c3ccc(C(=O)NCCN(C)C)cc3c2C(C)C)cc(C)n1 [Example 96, N-(2-(dimethylamino)ethyl)-2-(2,6-dimethylpyridin-4-yl)-3-isopropyl-1H-indole-5-carboxamide] | 1500 | 7.3 | 75 | – | – | – | – | –
Cc1cc(-c2[nH]c3ccc(C(=O)N(C)Cc4ccccc4)cc3c2C(C)C)cc(C)n1 [Example 99, N-benzyl-2-(2,6-dimethylpyridin-4-yl)-3-isopropyl-N-methyl-1H-indole-5-carboxamide] | 1830 | 481 | 201 | – | – | – | – | –
Cc1cc(-c2[nH]c3ccc(C(C)(C)C(=O)NC4CN5CCC4CC5)cc3c2C(C)C)ccn1 (stereo not drawn) [Example 142, 2-(3-isopropyl-2-(2-methylpyridin-4-yl)-1H-indol-5-yl)-2-methyl-N-(quinuclidin-3-yl)propanamide] | 790 | 120 | 16 | – | – | – | – | –
Cc1cc(-c2[nH]c3ccc(C(C)(C)C(=O)NC[C@H]4CCNC4)cc3c2C(C)C)ccn1 [Example 160, (S)-2-(3-isopropyl-2-(2-methylpyridin-4-yl)-1H-indol-5-yl)-2-methyl-N-(pyrrolidin-3-ylmethyl)propanamide] | 5090 | 1030 | 164 | – | – | – | – | –
Cc1cc(-c2[nH]c3ccc(C(C)(C)C(=O)N4CCC5(CCNC5)CC4)cc3c2C(C)C)ccn1 [Example 181, 2-(3-isopropyl-2-(2-methylpyridin-4-yl)-1H-indol-5-yl)-2-methyl-1-(2,8-diazaspiro[4.5]decan-8-yl)propan-1-one] | 1950 | 1240 | 76 | – | – | – | – | –
CC(C)c1c(-c2ccnc3[nH]ncc23)[nH]c2ccc(CCC(=O)N3CCOCC3)cc12 [Example 136, 3-(3-isopropyl-2-(1H-pyrazolo[3,4-b]pyridin-4-yl)-1H-indol-5-yl)-1-morpholinopropan-1-one] | > 50000 | 411 | 1760 | – | – | – | – | –
Cc1cc(-c2[nH]c3ccc(C(=O)N4CCNCC4)cc3c2C(C)C)cc(C)n1 [Example 108, (2-(2,6-dimethylpyridin-4-yl)-3-isopropyl-1H-indol-5-yl)(piperazin-1-yl)methanone] | 247 | 1.5 | 7.3 | – | – | – | – | –
Cc1cc(-c2[nH]c3ccc(C(C)C(=O)N4CCCC5(CCCCC5N)C4)cc3c2C(C)C)ccn1 (stereo not drawn) [Example 200, 1-(7-amino-2-azaspiro[5.5]undecan-2-yl)-2-(3-isopropyl-2-(2-methylpyridin-4-yl)-1H-indol-5-yl)propan-1-one] | – | – | – | – | – | 690 | 69 | 12

Further lines, results first:

IC50 (human TLR9; [1]) [nM] | IC50 (human TLR8; [2]) [nM] | IC50 (human TLR7) [nM] | IC50 (human TLR9) [nM] | IC50 (human TLR8) [nM] | IC50 (human TLR9; read-out: TLR9 IC50, HEK-Blue cells overexpressing human TLR9, ODN2006 5 nM, SEAP reporter, listed as 700) [nM] | IC50 (human TLR8; read-out: TLR8 IC50, HEK-Blue cells overexpressing human TLR8, R848 15.9 μM, SEAP reporter, listed as 700) [nM] | IC50 (human TLR7; listed as 700) [nM] | SMILES
3010 | 4 | 45 | – | – | – | – | – | COc1ccc(-c2[nH]c3ccc(C(=O)N4CCCN(C)CC4)cc3c2C(C)C)cc1OC [Example 2, (2-(3,4-dimethoxyphenyl)-3-isopropyl-1H-indol-5-yl)(4-methyl-1,4-diazepan-1-yl)methanone]
> 50000 | 412 | 1770 | – | – | – | – | – | CCc1c(-c2ccc(OC)c(OC)c2)[nH]c2ccc(C(=O)NC(CO)CO)cc12 [Example 67, N-(1,3-dihydroxypropan-2-yl)-2-(3,4-dimethoxyphenyl)-3-ethyl-1H-indole-5-carboxamide]
4410 | 2.2 | 367 | – | – | – | – | – | CCc1c(-c2ccc(OC)c(OC)c2)[nH]c2ccc(C(=O)N3CCN(CC)CC3)cc12 [Example 39, (2-(3,4-dimethoxyphenyl)-3-ethyl-1H-indol-5-yl)(4-ethylpiperazin-1-yl)methanone]
> 50000 | 79 | 153 | – | – | – | – | – | COc1ccc(-c2[nH]c3ccc(C(=O)N(C)C)cc3c2C(C)C)cc1OC [Example 3, 2-(3,4-dimethoxyphenyl)-3-isopropyl-N,N-dimethyl-1H-indole-5-carboxamide]
– | – | 401 | 593 | 278 | – | – | – | COc1ccc(-c2[nH]c3ccc(C(=O)N4CC5CNCC5C4)cc3c2CC(F)(F)F)cc1OC (stereo not drawn) [Example 88, (2-(3,4-dimethoxyphenyl)-3-(2,2,2-trifluoroethyl)-1H-indol-5-yl)(hexahydropyrrolo[3,4-c]pyrrol-2(1H)-yl)methanone hydrochloride]
